Activity calls are given as the source filed them. Cut-off read from the data, not from the text of the source, for most assays here: actives have a measured EC50 and inactives only a lower limit.
Legend:
Hexokinase HKDC1 = biological target: T1, Hexokinase HKDC1 (Homo sapiens, UniProt Q2TB90); experiment: SAR analysis of small molecule inhibitors of hexokinase domain containing I (HKDC1). [Related pubchem assays (depositor defined):AID493160, AID493190]; type: functional
T1 sequence (Q2TB90 whole entry): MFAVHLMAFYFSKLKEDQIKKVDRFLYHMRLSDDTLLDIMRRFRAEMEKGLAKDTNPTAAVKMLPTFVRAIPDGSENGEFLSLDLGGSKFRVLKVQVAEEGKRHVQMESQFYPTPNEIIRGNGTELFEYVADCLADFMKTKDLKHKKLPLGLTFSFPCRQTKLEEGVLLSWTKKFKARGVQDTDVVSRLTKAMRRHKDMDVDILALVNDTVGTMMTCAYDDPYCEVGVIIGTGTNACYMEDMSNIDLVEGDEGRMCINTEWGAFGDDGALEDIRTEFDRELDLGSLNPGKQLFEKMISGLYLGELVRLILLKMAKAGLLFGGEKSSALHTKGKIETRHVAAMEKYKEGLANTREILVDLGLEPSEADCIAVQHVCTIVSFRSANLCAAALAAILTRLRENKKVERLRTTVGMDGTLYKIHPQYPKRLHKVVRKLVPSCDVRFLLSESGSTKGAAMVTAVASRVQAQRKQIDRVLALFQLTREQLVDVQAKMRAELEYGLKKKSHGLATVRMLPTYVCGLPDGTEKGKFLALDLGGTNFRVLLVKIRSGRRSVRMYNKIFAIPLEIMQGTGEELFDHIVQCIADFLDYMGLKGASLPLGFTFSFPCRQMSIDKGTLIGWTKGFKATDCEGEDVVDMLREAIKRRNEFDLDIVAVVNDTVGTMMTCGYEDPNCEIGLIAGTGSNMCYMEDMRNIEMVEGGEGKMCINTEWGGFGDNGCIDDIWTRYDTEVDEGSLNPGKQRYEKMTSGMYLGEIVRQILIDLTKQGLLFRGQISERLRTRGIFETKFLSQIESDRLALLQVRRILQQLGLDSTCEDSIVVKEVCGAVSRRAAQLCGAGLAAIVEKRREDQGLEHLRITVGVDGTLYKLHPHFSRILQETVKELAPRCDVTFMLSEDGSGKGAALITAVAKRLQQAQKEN

Hexokinase-1 = biological target: T2, Hexokinase-1 (Homo sapiens, UniProt P19367); experiment: SAR analysis of small molecule inhibitors of hexokinase domain containing I (HKDC1) in the hexokinase 1 selectivity assay. [Related pubchem assays (depositor defined):AID493160, AID493190]; type: functional
T2 sequence (P19367 whole entry): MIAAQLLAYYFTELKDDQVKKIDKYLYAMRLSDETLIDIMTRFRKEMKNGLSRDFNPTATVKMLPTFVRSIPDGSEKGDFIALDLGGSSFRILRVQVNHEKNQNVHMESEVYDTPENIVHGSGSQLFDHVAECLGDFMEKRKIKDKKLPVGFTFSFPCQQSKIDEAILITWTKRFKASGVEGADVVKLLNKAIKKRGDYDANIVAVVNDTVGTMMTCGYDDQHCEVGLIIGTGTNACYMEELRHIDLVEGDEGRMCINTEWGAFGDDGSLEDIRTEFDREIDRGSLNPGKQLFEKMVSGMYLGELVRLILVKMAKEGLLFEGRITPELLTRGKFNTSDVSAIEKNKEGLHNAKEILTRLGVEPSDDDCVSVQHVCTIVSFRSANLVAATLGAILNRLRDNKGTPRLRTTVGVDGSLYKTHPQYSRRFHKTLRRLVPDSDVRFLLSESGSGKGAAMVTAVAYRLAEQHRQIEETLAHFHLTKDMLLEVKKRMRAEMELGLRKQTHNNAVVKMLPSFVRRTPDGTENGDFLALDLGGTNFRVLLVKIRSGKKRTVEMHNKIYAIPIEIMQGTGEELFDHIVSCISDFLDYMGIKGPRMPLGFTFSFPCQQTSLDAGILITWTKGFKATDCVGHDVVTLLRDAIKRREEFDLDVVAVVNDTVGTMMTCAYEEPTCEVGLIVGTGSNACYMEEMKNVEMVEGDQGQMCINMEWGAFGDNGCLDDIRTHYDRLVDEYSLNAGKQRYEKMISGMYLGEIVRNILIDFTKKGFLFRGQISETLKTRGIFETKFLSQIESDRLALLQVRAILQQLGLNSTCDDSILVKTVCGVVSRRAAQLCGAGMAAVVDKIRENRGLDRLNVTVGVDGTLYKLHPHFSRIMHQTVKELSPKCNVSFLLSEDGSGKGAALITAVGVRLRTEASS

H4 = experiment: Luminescence Cell-Based Dose Response HTS to Identify Activators of 5'UTR Stem-Loop Driven Prion Protein mRNA Translation in H4 Neuroglioblastoma Cells. [Related pubchem assays: 1829 (Project Summary), 1814 (Primary HTS)]; type: functional; details: Homo sapiens
[1] = Luminescence Cell-Based Dose Response to Identify Activators of Luciferase Translation or Activity in H4-C Neuroglioblastoma Cells. [Related pubchem assays: 1829 (Project Summary), 1814 (Primary HTS)]; type: functional
[2] = Luminescence Cell-Based Dose Response HTS to Identify Activators of Luciferase Translation or Activity in H4 […] Cells. [Related pubchem assays: 1829 (Project Summary), 1814 (Primary HTS)]; type: functional
[3] = Luminescence Cell-Based Dose Response to Identify Activators of 5'UTR Stem-Loop Driven Prion Protein mRNA Translation in H4-C Neuroglioblastoma Cells. [Related pubchem assays: 1829 (Project Summary), 1814 (Primary HTS)]; type: functional
[4] = biological target: T3, Nuclear receptor subfamily 0 group B member 1 (Homo sapiens, UniProt P51843); experiment: Luminescence-based cell-based high throughput dose response assay for inhibitors of the orphan nuclear receptor subfamily 0, group B, member 1 (DAX1; NR0B1). [Related pubchem assays (depositor defined):AID504766, AID504790]; type: functional
T3 sequence (P51843 whole entry): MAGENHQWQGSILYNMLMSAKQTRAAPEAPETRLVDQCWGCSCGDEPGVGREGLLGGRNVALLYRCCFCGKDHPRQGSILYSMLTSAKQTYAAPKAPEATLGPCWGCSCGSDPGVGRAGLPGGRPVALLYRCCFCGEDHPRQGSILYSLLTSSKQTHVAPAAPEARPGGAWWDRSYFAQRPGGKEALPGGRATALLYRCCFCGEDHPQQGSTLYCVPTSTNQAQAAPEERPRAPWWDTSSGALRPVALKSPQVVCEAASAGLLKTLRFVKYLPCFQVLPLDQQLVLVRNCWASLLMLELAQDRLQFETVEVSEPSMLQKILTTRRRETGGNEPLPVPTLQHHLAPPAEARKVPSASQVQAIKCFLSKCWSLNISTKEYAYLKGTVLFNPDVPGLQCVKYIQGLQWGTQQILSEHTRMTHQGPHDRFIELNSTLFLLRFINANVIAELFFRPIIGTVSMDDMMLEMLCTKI

HEK293 = experiment: cells; type: functional, cell-based; details: Homo sapiens
[5] = Luminescence Cell-Based Dose Confirmation to Identify Activators of 5'UTR Stem-Loop Driven Alpha-Synuclein mRNA Translation in H4 Neuroglioblastoma Cells. [Related pubchem assays: 1829 (Project Summary), 1814 (Primary HTS)]; type: functional
[6] = Luminescence Cell-Based Dose Confirmation HTS to Identify Activators of 5'UTR Stem-Loop Driven Alpha-Synuclein mRNA Translation in H4 Neuroglioblastoma Cells. [Related pubchem assays: 1829 (Project Summary), 1814 (Primary HTS)]; type: functional
[7] = NIH-3T3 fibroblast cytotoxicity, dose response, cytotoxicity control, cell-based, fluorescence, Alamar Blue, secondary assay (AID 2327); type: functional;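 note: NIH-3T3 mouse fibroblasts cultured with fluconazole at 8 µg/mL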
[8] = cytotoxicity toward NIH3T3 fibroblasts, dose response, counter-screen, cell-based, ATP luminescence, mouse fibroblasts (AID 2010); type: functional;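 note: cells exposed to compound for about 90 hours before reading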
[9] = tested on: Streptococcus sp. 'group A'; experiment: growth inhibition of control SK(-) GAS strain, dose response, counter-screen for streptokinase expression inhibitor project, luminescence, kanamycin, BacTiterGlo, confirmation (AID 1900); type: functional, organism-based
[10] = cytotoxicity toward DRD oncogenic fibroblasts, dose response, cell-based, non-viral oncogenic, luminescence (AID 1934); type: functional; details: Homo sapiens
[11] = C. albicans growth with fluconazole, confirmation, fluorescence, retest (AID 2467); type: functional, cell-based
Streptococcus = experiment: Group A Streptococcus viability loss, dose response, counter-screen for streptokinase expression inhibitor project, luminescence, BacTiterGlo (AID 1915); type: functional, organism-based;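 note: potency for reduction of bacterial viability or growth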
BJ [12] = experiment: cytotoxicity toward BJ-TERT fibroblasts, dose response, cell-based, RAS-independent, luminescence (AID 1933); type: functional; details: Homo sapiens
BJ [13] = experiment: cytotoxicity toward BJ-TERT-LT-ST fibroblasts, dose response, cell-based, RAS-independent, luminescence (AID 1935); type: functional; details: Homo sapiens;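 note: BJ fibroblasts immortalized with TERT plus LT and ST oncogenes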
[14] = biological target: Serine/threonine-protein phosphatase (Candida dubliniensis (strain CD36 / CBS 7987 / NCPF 3949 / NRRLY-17841) (Yeast), UniProt B9W6M3); experiment: calcineurin pathway inhibitors in yeast reporter, dose response, S. cerevisiae, CDRE-lacZ, luminescence, secondary (AID 2388); type: functional, cell-based;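 note: yeast reporter cells carrying a calcineurin-responsive lacZ construct stimulated with calcium chloride; luminescent beta-galactosidase reporter signal in whole cells rather than isolated phosphatase activity; potency for inhibition where a drop in reporter signal means calcineurin blockade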
Chain of Serine/threonine-protein phosphatase (B9W6M3 whole entry): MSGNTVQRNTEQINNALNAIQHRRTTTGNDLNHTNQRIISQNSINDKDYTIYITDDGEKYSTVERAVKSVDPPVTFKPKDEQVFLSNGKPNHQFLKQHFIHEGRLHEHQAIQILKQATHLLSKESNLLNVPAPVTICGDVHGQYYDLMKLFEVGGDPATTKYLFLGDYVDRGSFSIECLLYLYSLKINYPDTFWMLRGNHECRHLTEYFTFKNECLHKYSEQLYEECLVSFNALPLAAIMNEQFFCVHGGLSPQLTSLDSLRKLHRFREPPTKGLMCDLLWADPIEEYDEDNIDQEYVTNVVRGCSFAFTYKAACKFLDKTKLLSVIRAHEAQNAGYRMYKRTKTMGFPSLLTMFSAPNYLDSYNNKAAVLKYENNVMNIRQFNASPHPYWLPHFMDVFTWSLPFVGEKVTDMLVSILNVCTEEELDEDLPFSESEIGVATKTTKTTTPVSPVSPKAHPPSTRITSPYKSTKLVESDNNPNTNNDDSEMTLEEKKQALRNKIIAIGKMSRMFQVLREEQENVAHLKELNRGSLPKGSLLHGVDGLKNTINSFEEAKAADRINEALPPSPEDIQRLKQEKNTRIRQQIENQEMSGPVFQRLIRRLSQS

Streptokinase A = biological target: T4, Streptokinase A (Streptococcus pyogenes serotype M1, UniProt P10520); experiment: S. pyogenes streptokinase expression inhibitors, potency, dose response, plasminogen activation absorbance, OD405 (AID 1914); type: functional, Streptococcus pyogenes M1 GAS;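 note: secreted streptokinase activity via plasminogen activation per viability signal from cell pellet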
T4 sequence (P10520 whole entry): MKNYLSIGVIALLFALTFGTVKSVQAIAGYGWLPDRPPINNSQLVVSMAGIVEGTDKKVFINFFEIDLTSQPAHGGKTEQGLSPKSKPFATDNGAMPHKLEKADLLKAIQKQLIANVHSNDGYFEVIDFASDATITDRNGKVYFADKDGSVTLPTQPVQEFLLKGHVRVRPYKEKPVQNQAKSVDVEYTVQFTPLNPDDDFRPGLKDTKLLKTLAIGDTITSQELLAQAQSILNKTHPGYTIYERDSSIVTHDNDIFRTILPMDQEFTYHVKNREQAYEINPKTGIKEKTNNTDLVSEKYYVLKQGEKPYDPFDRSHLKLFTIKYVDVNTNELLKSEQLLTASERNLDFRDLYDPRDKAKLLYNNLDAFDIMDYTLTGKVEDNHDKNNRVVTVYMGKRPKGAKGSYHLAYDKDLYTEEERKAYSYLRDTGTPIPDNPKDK

[15] = biological target: ATP-dependent molecular chaperone HSP82 (Candida albicans (strain WO-1) (Yeast), UniProt C4YTQ8); experiment: loss of DOC-induced GRE-beta-galactosidase reporter signal, dose response, Hsp90 inhibitor project, S. cerevisiae, luminescence (AID 2400); type: functional, cell-based;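 note: beta-galactosidase luminescence from glucocorticoid response element reporter as proxy for Hsp90 function; inhibitor potency where signal loss means Hsp90 inhibition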
Chain of ATP-dependent molecular chaperone HSP82 (C4YTQ8 whole entry): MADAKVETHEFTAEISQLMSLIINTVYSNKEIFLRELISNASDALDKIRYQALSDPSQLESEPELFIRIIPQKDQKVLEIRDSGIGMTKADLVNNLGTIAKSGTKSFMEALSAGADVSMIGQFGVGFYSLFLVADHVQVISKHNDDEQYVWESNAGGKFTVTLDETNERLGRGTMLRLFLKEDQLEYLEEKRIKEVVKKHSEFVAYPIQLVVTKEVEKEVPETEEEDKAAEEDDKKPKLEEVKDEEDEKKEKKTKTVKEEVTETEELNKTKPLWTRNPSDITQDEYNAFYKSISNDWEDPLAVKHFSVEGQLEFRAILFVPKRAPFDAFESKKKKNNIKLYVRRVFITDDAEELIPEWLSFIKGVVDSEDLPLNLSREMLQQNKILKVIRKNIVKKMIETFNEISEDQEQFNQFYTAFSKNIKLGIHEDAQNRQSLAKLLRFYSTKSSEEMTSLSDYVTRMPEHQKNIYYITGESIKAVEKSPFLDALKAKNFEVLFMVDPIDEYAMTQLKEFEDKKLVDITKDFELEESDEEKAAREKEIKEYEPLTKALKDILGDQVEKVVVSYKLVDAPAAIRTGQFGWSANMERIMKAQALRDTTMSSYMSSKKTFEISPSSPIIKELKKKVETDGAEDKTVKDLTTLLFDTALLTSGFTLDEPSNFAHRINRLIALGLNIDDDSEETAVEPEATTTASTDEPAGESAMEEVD

[16] = inhibitors of intracellular T. cruzi replication, confirmation, NIH3T3 host cells, beta-gal luminescence (AID 2044); type: functional, cell-based;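 note: intracellular parasites grown in NIH/3T3 mouse fibroblasts as host cells; luminescent beta-galactosidase reporter signal from transgenic T. cruzi replicating inside host cells; inhibitors lower the luminescence signal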
BJ [17] = experiment: cells; type: functional, cell-based; details: Homo sapiens
INS1 = experiment: beta cell apoptosis inhibitors, cytokine rescue, dose response, luminescence, retest (AID 449756); type: functional, cell-based; details: Rattus norvegicus;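 note: cell death triggered by IL-1 beta plus TNF-alpha plus IFN-gamma mixture; protective hits raise ATP signal compared with cytokine alone wells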
[18] = biological target: T5, Corticotropin-releasing factor receptor 2/Corticotropin-releasing factor-binding protein (Homo sapiens, UniProt P24387+Q13324); experiment: activators of CRF receptor 2 with binding protein – uHTS hits, confirmation (AID 602473); type: functional; details: read-out: EC50_Mean
T5 sequence (Q13324 whole entry): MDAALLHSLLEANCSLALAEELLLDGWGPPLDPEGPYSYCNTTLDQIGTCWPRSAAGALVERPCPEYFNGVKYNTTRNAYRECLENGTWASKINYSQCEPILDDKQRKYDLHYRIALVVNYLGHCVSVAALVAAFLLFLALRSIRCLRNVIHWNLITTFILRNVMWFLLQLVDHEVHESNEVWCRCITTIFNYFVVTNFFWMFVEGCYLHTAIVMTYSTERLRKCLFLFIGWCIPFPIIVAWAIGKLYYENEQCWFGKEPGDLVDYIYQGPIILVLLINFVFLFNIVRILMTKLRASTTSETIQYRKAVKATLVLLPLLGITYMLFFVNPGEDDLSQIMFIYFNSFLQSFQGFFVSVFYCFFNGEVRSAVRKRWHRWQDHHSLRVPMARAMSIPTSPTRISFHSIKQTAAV
T5 sequence (P24387 whole entry): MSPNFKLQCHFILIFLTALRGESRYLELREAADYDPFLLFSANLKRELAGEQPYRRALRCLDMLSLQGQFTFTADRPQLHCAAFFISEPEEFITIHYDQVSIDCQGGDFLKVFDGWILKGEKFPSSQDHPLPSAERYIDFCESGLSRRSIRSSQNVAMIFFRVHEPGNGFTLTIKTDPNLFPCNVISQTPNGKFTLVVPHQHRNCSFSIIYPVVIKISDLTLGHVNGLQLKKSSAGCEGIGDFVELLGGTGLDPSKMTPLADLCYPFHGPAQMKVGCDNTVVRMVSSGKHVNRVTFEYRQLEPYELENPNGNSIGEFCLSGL

[19] = biological target: NACHT, LRR and PYD domains-containing protein 3 (Homo sapiens, UniProt Q96P20); experiment: NALP3 inhibitors in yeast, dose response, luminescent (AID 488799); type: functional
Chain of NACHT, LRR and PYD domains-containing protein 3 (Q96P20 whole entry, the tested form may be a part): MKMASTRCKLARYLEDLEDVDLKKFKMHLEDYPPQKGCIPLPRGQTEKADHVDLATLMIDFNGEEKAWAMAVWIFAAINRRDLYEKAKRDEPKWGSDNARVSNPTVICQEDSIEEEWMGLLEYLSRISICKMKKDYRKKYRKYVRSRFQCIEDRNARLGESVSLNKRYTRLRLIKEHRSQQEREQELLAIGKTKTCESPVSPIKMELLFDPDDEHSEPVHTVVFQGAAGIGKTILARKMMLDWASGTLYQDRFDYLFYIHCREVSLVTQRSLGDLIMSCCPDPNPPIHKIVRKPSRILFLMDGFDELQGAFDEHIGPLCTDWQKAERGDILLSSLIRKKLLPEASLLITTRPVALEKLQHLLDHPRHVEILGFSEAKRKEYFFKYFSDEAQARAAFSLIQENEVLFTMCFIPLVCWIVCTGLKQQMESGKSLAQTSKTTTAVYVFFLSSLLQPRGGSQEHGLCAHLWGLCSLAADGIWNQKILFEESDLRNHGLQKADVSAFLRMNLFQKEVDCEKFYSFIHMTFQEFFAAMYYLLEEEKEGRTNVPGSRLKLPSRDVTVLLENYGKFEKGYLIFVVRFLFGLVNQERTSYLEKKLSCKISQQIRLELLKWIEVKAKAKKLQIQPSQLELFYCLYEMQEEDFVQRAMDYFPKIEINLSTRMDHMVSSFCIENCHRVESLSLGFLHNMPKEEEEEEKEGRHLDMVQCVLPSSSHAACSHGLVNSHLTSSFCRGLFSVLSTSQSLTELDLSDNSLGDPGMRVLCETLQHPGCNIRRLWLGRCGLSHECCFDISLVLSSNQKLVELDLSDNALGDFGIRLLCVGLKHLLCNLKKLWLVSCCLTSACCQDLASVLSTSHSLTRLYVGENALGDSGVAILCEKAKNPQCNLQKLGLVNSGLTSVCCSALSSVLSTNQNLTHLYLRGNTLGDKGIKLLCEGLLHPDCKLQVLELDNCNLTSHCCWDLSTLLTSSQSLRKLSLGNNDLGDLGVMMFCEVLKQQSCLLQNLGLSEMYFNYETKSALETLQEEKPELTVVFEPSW

Structure (SMILES): O=C(Nc1nnc(SCc2ccccc2)s1)c1ccc2ncsc2c1
- IC50 (Hexokinase HKDC1): > 80 µM (inactive)
- IC50 (Hexokinase-1): > 80 µM (inactive)

Structure (SMILES): COc1ccc(C(=O)C[n+]2ccc3ccccc3c2C)cc1
- EC50 (H4): > 120 µM (not active)
- EC50 [1]: 0.402 µM (active)
- EC50 [2]: 0.235 µM (active)
- EC50 [3]: 0.646 µM (active)
- IC50 [4]: > 67.5 µM (inactive)
- IC50 (HEK293): > 67.5 µM (inactive)
- EC50 [5]: 0.375 µM (active)
- EC50 [6]: < 0.1 µM (active)

Structure (SMILES): Nc1nonc1-n1nnc(C(=O)N/N=C/c2cc(Cl)ccc2O)c1CN1CCCCCC1
- EC50 [7]: 29.6 µM (active)
- EC50 [8]: 6.91 µM (active)
- EC50 [9]: 4.87 µM (active)
- EC50 [10]: 55.4 µM (active)
- EC50 [11]: 0.296 µM (active)
- EC50 (Streptococcus): 20.4 µM (active)
- EC50 (BJ [12]): 24.9 µM (active)
- EC50 (BJ [13]): > 75 µM (not active)
- EC50 [14]: > 180 µM (inactive)
- EC50 (Streptokinase A): > 150 µM (not active)
- EC50 [15]: > 150 µM (inactive)
- EC50 [16]: 1.39 µM (active)
- EC50 (BJ [17]): 115 µM (active)
- AC50 (INS1): 1.85 µM (active)

Structure (SMILES): O=C(NNC(=S)NC(=O)c1ccc(Br)cc1)c1ccc([N+](=O)[O-])cc1
- EC50 [7]: > 160 µM (inconclusive)
- EC50 [11]: 0.198 µM (active)
- EC50 [14]: > 180 µM (inactive)
- EC50 [15]: > 160 µM (inactive)
- EC50 [18]: 5.32 µM (active)
- IC50 [19]: 5.63 µM (active)

Structure (SMILES): O=C(CSC(=S)N1CCCCC1)c1c(F)cccc1F
- IC50 [4]: > 67.5 µM (inactive)
- IC50 (HEK293): > 67.5 µM (inactive)

— ChEMBL document CHEMBL1201862, “PubChem BioAssay data set” (2004)
